# Biological target: T1, HCV RNA Polymerase, recombinant NS5B with C-terminal 21 amino acid deletion, genotype 1a (strain H77) (Hepatitis C virus genotype 1a, UniProt P27958)
# T1 construct: fused on or other part: C-terminal 6His-tag
# Assay: In vitro HCV RNA-dependent RNA polymerase inhibition assay, genotype 1a C-terminally truncated (delta21) enzyme
# Assay type: biochemical, HCV genotype 1a
# Details: genotype 1a NS5B delta21, 25 nM enzyme; read-out: IC50 in delta-21 1a enzyme inhibition assay
# From the text: In Vitro Detection of inhibitors of HCV RNA-Dependent RNA Polymerase Activity
# Incorporation of [^33P]-GMP into RNA was followed by absorption of the biotin labelled RNA polymer by streptavidin containing SPA beads. A synthetic template consisting of biotinylated 13mer-oligoG hybridised to polyrC was used as a homopolymer substrate.
# a) Genotype 1a C-Terminally Truncated (delta21) Enzyme
# HCV RNA Polymerase [Recombinant NS5B with C-terminal 21 amino acid deletion and C-terminal 6His-tag (Ferrari et al. J. Virol. 73(2), 1999, 1649. ‘Characterization of soluble hepatitis C virus RNA-dependent RNA polymerase expressed in Escherichia coli.’) expressed in E. coli and purified to homogeneity] was added to 25 nM final concentration. Polymerase of genotype la was from strain H77 (Yanagi, M., Purcell, R. H., Emerson, S. U. & Bukh, J. (1997), Proceedings of the National Academy of Sciences, USA 94, 8738-8743) containing a sequence change from valine to isoleucine at position 180.
# Reaction Conditions were 25 nM enzyme, 1.5 μg/ml oligo-rG13/poly-rC and 0.2 μCi α-^33P-GTP in 0.5 μM GTP (20 Ci/mMol) , 20 mM Tris pH 7.5, 23 mM NaCl, 3 mM DTT, 5 mM MgCl2, 1 mM MnCl2.
# Enzyme was diluted to 500 nM concentration in 20 mM Tris-HCl, pH 7.5, 25 mM NaCl and 3 mM DTT.
# 4× concentrated assay buffer mix was prepared using 1M Tris-HCl, pH7.5 (1 mL), 5M NaCl (0.25 mL), 1M DTT (0.12 mL) and Water (8.63 mL), Total 10 mL.
# 2× concentrated first reagent was prepared using 4× concentrated assay buffer mix (5 μL), 40 μ/μL RNasin (0.1 μL), 20 μg/mL polyrC/biotinylated-oligorG (1.6 μL), 500 nM enzyme (1 μL ) and Water (2.3 μL), Total 10 μL/well.
# 2× concentrated second reagent was prepared using 1 M MgCl2 ([…]), 1M MnCl2 (0.02 μL), 25 μM GTP (0.4 μL), α-[^33P]-GTP (10 μCi/μL, 0.02 μL) and water (9.5 μL), Total 10 μL/well.
# The assay was set up using compound (1 μL in 100% DMSO), first reagent (10 μL), and second reagent (10 μL), Total 21 μL.
# The reaction was performed in a U-bottomed, white, 96-well plate. The reaction was mixed on a plate-shaker, after addition of the Enzyme, and incubated for 1 h at 22° C. After this time, the reaction was stopped by addition of 60 μL 1.5 mg/ml streptavidin SPA beads (Amersham) in 0.1 M EDTA in PBS. The beads were incubated with the reaction mixture for 1 h at 22° C. after which 100 μL 0.1 M EDTA in PBS was added. The plate was sealed, mixed centrifuged and incorporated radioactivity determined by counting in a Trilux (Wallac) or Topcount (Packard) Scintillation Counter.
# After subtraction of background levels without enzyme, any reduction in the amount of radioactivity incorporated in the presence of a compound, compared to that in the absence, was taken as a measure of the level of inhibition. Ten concentrations of compounds were tested in three- or fivefold dilutions. From the counts per minute, percentage of inhibition at highest concentration tested or IC50s for the compounds were calculated using GraFit 3, GraFit 4 or GraFit 5 (Erithacus Software Ltd.) software packages or a data evaluation macro for Excel based on XLFit software (IDBS).
# T1 sequence (P27958 2601-2990 limits assumed, stated change not applied): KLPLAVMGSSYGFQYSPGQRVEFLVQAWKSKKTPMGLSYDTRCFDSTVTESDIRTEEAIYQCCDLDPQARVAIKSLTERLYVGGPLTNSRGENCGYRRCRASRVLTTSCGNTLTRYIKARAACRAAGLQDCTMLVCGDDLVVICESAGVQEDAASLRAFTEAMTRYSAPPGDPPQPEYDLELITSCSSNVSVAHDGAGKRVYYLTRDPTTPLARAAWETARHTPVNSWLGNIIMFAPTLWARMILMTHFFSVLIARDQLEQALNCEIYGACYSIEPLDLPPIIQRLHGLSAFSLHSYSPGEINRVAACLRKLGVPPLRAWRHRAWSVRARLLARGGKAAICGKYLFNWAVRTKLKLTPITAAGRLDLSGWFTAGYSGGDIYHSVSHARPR
row,Structure (SMILES),IC50
1,"COC[C@H]1C[C@@](CC(C)C)(C(=O)O)N(C(=O)c2ccc(C(C)(C)C)c(OC)c2)[C@H]1c1nccs1 [Compound B, (2S,4S,5R)-2-isobutyl-1-(3-methoxy-4-tert-butylbenzoyl)-4-methoxymethyl-5-(1,3-thiazol-2-yl)pyrrolidine-2-carboxylic acid, reference compound]",> 1000 nM
2,"COC[C@H]1C[C@@](CC(C)C)(C(=O)O)N(C(=O)c2ccc(C(C)(C)C)c(OC)c2)[C@H]1c1ncc(C)s1 (racemic) [Compound C, rel-(2S,4S,5R)-2-isobutyl-1-(3-methoxy-4-tert-butylbenzoyl)-4-methoxymethyl-5-(5-methyl-1,3-thiazol-2-yl)pyrrolidine-2-carboxylic acid, reference compound]",> 1000 nM
3,"COC[C@H]1C[C@@](Cn2cccn2)(C(=O)O)N(C(=O)c2ccc(C(C)(C)C)c(OC)c2)[C@H]1c1nccs1 (racemic) [Example 6, rel-(2R,4S,5R)-1-(3-Methoxy-4-tert-butylbenzoyl)-4-(methoxymethyl)-2-(1H-pyrazol-1-ylmethyl)-5-(1,3-thiazol-2-yl)pyrrolidine-2-carboxylic acid]",< 750 nM
4,"COC[C@H]1C[C@@](Cc2cscn2)(C(=O)O)N(C(=O)c2ccc(C(C)(C)C)c(OC)c2)[C@H]1c1nccs1 (single isomer, unassigned; enantiomer a) [Example 12]",< 750 nM
5,"COC[C@H]1C[C@@](Cn2cccn2)(C(=O)O)N(C(=O)c2ccc(C(C)(C)C)c(OC)c2)[C@H]1c1ncc(C)s1 (racemic) [Example 10, rel-(2R,4S,5R)-1-(3-Methoxy-4-tert-butylbenzoyl)-4-(methoxymethyl)-5-(5-methyl-1,3-thiazol-2-yl)-2-(1H-pyrazol-1-ylmethyl)pyrrolidine-2-carboxylic acid]",< 750 nM
6,"COC[C@H]1C[C@@](Cc2nccs2)(C(=O)O)N(C(=O)c2ccc(C(C)(C)C)c(OC)c2)[C@H]1c1ncc(C)s1 (racemic) [Example 8, rel-(2R,4S,5R)-1-(3-Methoxy-4-tert-butylbenzoyl)-4-(methoxymethyl)-5-(5-methyl-1,3-thiazol-2-yl)-2-(1,3-thiazol-2-ylmethyl)pyrrolidine-2-carboxylic acid]",< 750 nM
7,"COC[C@H]1C[C@@](Cc2cscn2)(C(=O)O)N(C(=O)c2ccc(C(C)(C)C)c(OC)c2)[C@H]1c1nccs1 (racemic) [Example 3, rel-(2R,4S,5R)-1-(3-Methoxy-4-tert-butylbenzoyl)-4-(methoxymethyl)-5-(1,3-thiazol-2-yl)-2-(1,3-thiazol-4-ylmethyl)pyrrolidine-2-carboxylic acid]",< 750 nM
8,"COC[C@H]1C[C@@](Cc2ccsn2)(C(=O)O)N(C(=O)c2ccc(C(C)(C)C)c(OC)c2)[C@H]1c1nccs1 (single isomer, unassigned; enantiomer a) [Example 5]",< 750 nM
9,"COC[C@H]1C[C@@](Cn2cccn2)(C(=O)O)N(C(=O)c2ccc(C(C)(C)C)c(OC)c2)[C@H]1c1ncc(C)s1 (single isomer, unassigned; enantiomer a) [Example 11]",< 750 nM
10,"COC[C@H]1C[C@@](CC(C)C)(C(=O)O)N(C(=O)c2ccc(C(C)(C)C)c(OC)c2)[C@H]1c1nccs1 (racemic) [Compound A, rel-(2S,4S,5R)-2-isobutyl-1-(3-methoxy-4-tert-butylbenzoyl)-4-methoxymethyl-5-(1,3-thiazol-2-yl)pyrrolidine-2-carboxylic acid, reference compound]",> 1000 nM
11,"COC[C@H]1C[C@@](Cc2cscn2)(C(=O)O)N(C(=O)c2ccc(C(C)(C)C)c(OC)c2)[C@H]1c1ncc(C)s1 (racemic) [Example 1, rel-(2R,4S,5R)-1-(3-Methoxy-4-tert-butylbenzoyl)-4-(methoxymethyl)-5-(5-methyl-1,3-thiazol-2-yl)-2-(1,3-thiazol-4-ylmethyl)pyrrolidine-2-carboxylic acid]",< 750 nM
12,"COC[C@H]1C[C@@](Cc2ccccc2)(C(=O)O)N(C(=O)c2ccc(C(C)(C)C)c(OC)c2)[C@H]1c1nccs1 (racemic) [Compound E, rel-(2R,4S,5R)-2-benzyl-1-(3-methoxy-4-tert-butylbenzoyl)-4-methoxymethyl-5-(1,3-thiazol-2-yl)-pyrrolidine-2-carboxylic acid, reference compound]",> 1000 nM
13,"COC[C@H]1C[C@@](Cc2ccsn2)(C(=O)O)N(C(=O)c2ccc(C(C)(C)C)c(OC)c2)[C@H]1c1ncc(C)s1 (racemic) [Example 9, rel-(2R,4S,5R)-1-(3-Methoxy-4-tert-butylbenzoyl)-4-(methoxymethyl)-5-(5-methyl-1,3-thiazol-2-yl)-2-(1,2-thiazol-3-ylmethyl)pyrrolidine-2-carboxylic acid]",< 750 nM
14,"COC[C@H]1C[C@@](Cn2cccn2)(C(=O)O)N(C(=O)c2ccc(C(C)(C)C)c(OC)c2)[C@H]1c1nccs1 (single isomer, unassigned) [Example 7]",< 750 nM
15,"COCC1CC(CC(C)C)(C(=O)O)N(C(=O)c2ccc(C(C)(C)C)c(OC)c2)C1c1ncc(C)s1 (single isomer, unassigned; enantiomer a) [Compound D, reference compound]",750 to 1000 nM
16,"COC[C@H]1C[C@@](Cc2cscn2)(C(=O)O)N(C(=O)c2ccc(C(C)(C)C)c(OC)c2)[C@H]1c1ncc(C)s1 (single isomer, unassigned; enantiomer a) [Example 2]",< 750 nM
17,"COC[C@H]1C[C@@](Cc2ccsn2)(C(=O)O)N(C(=O)c2ccc(C(C)(C)C)c(OC)c2)[C@H]1c1nccs1 (racemic) [Example 4, rel-(2R,4S,5R)-1-(3-Methoxy-4-tert-butylbenzoyl)-4-(methoxymethyl)-5-(1,3-thiazol-2-yl)-2-(1,2-thiazol-3-ylmethyl)pyrrolidine-2-carboxylic acid]",< 750 nM
